“Also recorded” adds a separate entry of the source.
Columns and labels:
[1] = test system: rat ovariectomy (OVX) model; test: Short-term effects on body weight, uterine weight and bone turnover markers in the rat ovariectomy (OVX) model; type: in vivo, rat (Sprague-Dawley); parameters: key to Body weight, change during the first week / Body weight, change during the in-life phase / Relative uterine weight at day 14 / Serum PINP levels, change during the in-life phase / Serum OC levels, change during the in-life phase / Serum CTX levels, change during the in-life phase / Serum TRACP 5b activity, change during the in-life phase: An upwards arrow (↑) indicates a statistically significant increase; a downwards arrow (↓) a statistically significant decrease; One asterisk (*) indicates a statistical significance with a p-value<0.05; two asterisks (**) with a p-value<0.01; three asterisks (***) with a p-value<0.001; NS=Non-significant; details: for Body weight, change during the first week / Body weight, change during the in-life phase / Relative uterine weight at day 14 / Serum CTX levels, change during the in-life phase / Serum OC levels, change during the in-life phase / Serum PINP levels, change during the in-life phase / Serum TRACP 5b activity, change during the in-life phase: OVX rats vs OVX vehicle
Text: The objective of this study was to investigate short-term effects of Compound 1 on biochemical serum markers of bone metabolism in a prevention study in a rat ovariectomy (OVX) model for postmenopausal osteoporosis. 17β-estradiol (E2) was used as a reference compound. The following five experimental groups were included in the study:
Each group contained eight female rats (Sprague-Dawley) that were three months of age at the beginning of in-life phase of the study. Before the start of the in-life phase, animals were weighed, their blood samples were harvested, and animals were randomized to study groups by stratification according to body weight and serum levels of procollagen type I N-terminal propeptide (PINP). At the beginning of the in-life phase, animals were weighed and operated. Treatment was started one day after the operations and continued once a day for two weeks. Sterile water was used as vehicle in groups 1 and 2. Body weight was determined after one week of treatment and treatment doses were adjusted accordingly. After two weeks of treatment, animals were weighed, their blood samples were harvested, animals were terminated, and their relative uterine weight was determined. For analyzing short-term effects of treatments, levels of four bone metabolism biomarkers were determined in serum samples harvested before the start and at the end of the in-life phase. These biomarkers included PINP as a marker of bone formation, N-terminal mid-fragment of osteocalcin (OC) as a general marker of bone turnover, C terminal cross-linked telopeptides of type I collagen (CTX) as a marker of bone resorption, and tartrate-resistant acid phosphatase isoform 5b (TRACP 5b) as a marker of osteoclast number. Serum levels at day −7 were used as baseline levels and serum levels at day 14 as levels affected by operations and treatments.
Each group contained eight female rats (Sprague-Dawley) that were three months of age at the beginning of in-life phase of the study. Animals were randomized to study groups by stratification according to their body weight and serum levels of procollagen type I N-terminal propeptide (PINP) measured one week before the start of the in-life phase (at day −7). At the beginning of the in-life phase (at day 0), animals were weighed, animals in groups 2-5 were ovariectomized, and animals in group 1 SHAM-operated. Treatment was started one day after the operations and continued once a day for two weeks (up to day 13). Sterile water was used as vehicle in groups 1 and 2. Body weight was determined at the beginning of the in-life phase (at day 0), one week after the start of the inlife phase (at day 7), and at the end of the in-life phase (at day 14). Treatment doses were adjusted according to the latest body weight obtained. After two weeks of treatment (at day 14), animals were weighed, their blood samples were harvested, animals were terminated, and their relative uterine weight was determined. For analyzing short-term effects of treatments, levels of four bone metabolism biomarkers were measured in serum samples harvested before the start of the in-life phase (at day −7) and at the end of the in-life phase (at day 14). These biochemical serum markers included PINP, N-terminal mid-fragment of osteocalcin (OC), C-terminal cross-linked telopeptides of type I collagen (CTX), and tartrate-resistant acid phosphatase isoform 5b (TRACP 5b). Serum levels obtained at day −7 were used as baseline levels and serum levels obtained at day 14 as levels affected by surgical operations and treatments.
Biochemical markers of bone metabolism are useful tools for monitoring osteoporosis therapy and for prediction of fracture risk and long-term changes in bone mineral density (Cremers et al. 2008). […]

[2] = test system: KS483 mouse osteoprogenitor cells; test: Osteoblast differentiation assay (cellular ALP activity at day 8); type: cell-based
Experimental: In the third part, KS483 mouse osteoprogenitor cells were cultured for 8 days, after which the formed mature osteoblasts were quantitated by measuring the amount of intracellular alkaline phosphatase (ALP) activity. […] The effects on osteoblasts were studied using KS483 mouse osteoprogenitor cells that can be induced to differentiate into bone-forming osteoblasts. […] In the osteoblast differentiation assay, the cells were cultured for 8 days, after which the formed mature osteoblasts were quantitated by measuring the amount of intracellular alkaline phosphatase (ALP) activity. […] A culture system was established that can be used as an in vitro model for studying the effects of anabolic and estrogen-like compounds on osteoblast differentiation and activity. In this culture system mouse KS483 cells first proliferate and then differentiate into osteoblasts capable of forming mineralized bone nodules in the presence of ascorbic acid and ß-glycerophosphate (Fagerlund et al. 2009). The test and reference compounds are added into the cell cultures concomitantly with the medium change, and their effects on the differentiation and activity of osteoblasts are determined. Cellular ALP, a marker of osteoblast differentiation, is determined from the cell lysates as described earlier (Lowry et al. 1954). Secreted PINP, a marker of organic bone matrix formation, is determined from the culture medium using a commercially available method (Rat/Mouse PINP EIA, IDS Ltd, Boldon, UK). Calcium deposition, an index of inorganic bone matrix formation, is measured using a commercially available calcium assay (Roche Diagnostics). Mouse KS483 cells were cultured in T-75 tissue culture flasks in aMEM supplemented with 10% charcoal-stripped fetal bovine serum until 80-90% confluence. The cells were incubated in a CO2 incubator in humidified atmosphere of 95% air and 5% carbon dioxide at 37° C. After reaching 80-90% confluence, subcultures were prepared. Cells were removed from the flasks with trypsin treatment and counted. For induction of the maturation of osteoblasts and bone formation, the immature osteoblastic cells were plated in type I collagen-coated 96-well plates. The cells were cultured for 8 days with a supplement of ascorbic acid ([…]), and half of the media was changed every 3-4 days. The test compound and control substance (E2) were added in the beginning of the culture period and when the medium was changed. The cultures were stopped at day 8 by removing the culture media from the wells, and cell lysates were prepared. Cellular ALP activity and total protein content (Protein Assay, Bio-Rad Laboratories Inc, CA, USA) were quantitated by using VICTOR2™ Multilabel Counter (PerkinElmer, Waltham, Mass., USA).

[3] = OVX rats, Compound 1 oral dose of 3 mg/kg/d, two weeks
[4] = OVX rats, Compound 1 oral doses of 1 and 3 mg/kg/d, two weeks

SMILES: COc1cc2nccc(Oc3ccc(NC(=O)C4(C(=O)Nc5ccc(F)cc5)CC4)cc3)c2cc1OC [Compound 1, N-(4-{[6,7-bis(methyloxy)quinolin-4-yl]oxy}phenyl)-N′-(4-fluorophenyl)cyclopropane-1,1-dicarboxamide]
- Body weight, change during the first week ([1]; cabozantinib 1 mg/kg/d p.o.): ↓ *
- Body weight, change during the in-life phase ([1]; cabozantinib 1 mg/kg/d p.o.): ↓ *
- Relative uterine weight at day 14 ([1]; cabozantinib 1 mg/kg/d p.o.): NS
- Serum CTX levels, change during the in-life phase ([1]; cabozantinib 1 mg/kg/d p.o.): NS
- Serum OC levels, change during the in-life phase ([1]; cabozantinib 1 mg/kg/d p.o.): NS
- Serum PINP levels, change during the in-life phase ([1]; cabozantinib 1 mg/kg/d p.o.): NS
- Serum TRACP 5b activity, change during the in-life phase ([1]; cabozantinib 1 mg/kg/d p.o.): NS
- Body weight, change during the first week ([1]; cabozantinib 3 mg/kg/d p.o.): NS
- Body weight, change during the in-life phase ([1]; cabozantinib 3 mg/kg/d p.o.): NS
- Relative uterine weight at day 14 ([1]; cabozantinib 3 mg/kg/d p.o.): NS
- Serum CTX levels, change during the in-life phase ([1]; cabozantinib 3 mg/kg/d p.o.): NS
- Serum OC levels, change during the in-life phase ([1]; cabozantinib 3 mg/kg/d p.o.): NS
- Serum PINP levels, change during the in-life phase ([1]; cabozantinib 3 mg/kg/d p.o.): ↑ *
- Serum TRACP 5b activity, change during the in-life phase ([1]; cabozantinib 3 mg/kg/d p.o.): ↓ *
- OVX-induced gain in body weight ([1]; OVX rats, Compound 1 oral dose of 1 mg/kg/d, two weeks): partially prevented
- OVX-induced increase in serum PINP levels [1, 3]: enhanced
- OVX-induced reduction in serum TRACP 5b activity [1, 3]: enhanced
- OVX-induced increase in serum CTX levels [1, 4]: did not affect
- OVX-induced increase in serum OC levels [1, 4]: did not affect
- OVX-induced reduction in relative uterine weight [1, 4]: did not affect
- ALP values / osteoblast differentiation ([2]; 3.0 μM): decreased; also recorded: inhibitory effects
- ALP values / osteoblast differentiation ([2]; 0.012, 0.037, 0.11, 0.33 and 1.0 μM): increased; also recorded: dose-dependent stimulation
- activity at 0.004 µM ([2]; Mus musculus, Osteoblast, 192 h, 0.004 μM Compound 1, read-out: ALP Activity at Day 8, Percent Activity (%) Compared to BL): 109%
- activity at 0.012 µM ([2]; Mus musculus, Osteoblast, 192 h, 0.012 μM Compound 1, read-out: ALP Activity at Day 8, Percent Activity (%) Compared to BL): 113%
- activity at 0.037 µM ([2]; Mus musculus, Osteoblast, 192 h, 0.037 μM Compound 1, read-out: ALP Activity at Day 8, Percent Activity (%) Compared to BL): 134%
- activity at 0.11 µM ([2]; Mus musculus, Osteoblast, 192 h, 0.11 μM Compound 1, read-out: ALP Activity at Day 8, Percent Activity (%) Compared to BL): 181%
- activity at 0.33 µM ([2]; Mus musculus, Osteoblast, 192 h, 0.33 μM Compound 1, read-out: ALP Activity at Day 8, Percent Activity (%) Compared to BL): 166%
- activity at 1 µM ([2]; Mus musculus, Osteoblast, 192 h, 1.0 μM Compound 1, read-out: ALP Activity at Day 8, Percent Activity (%) Compared to BL): 117%
- activity at 3 µM ([2]; Mus musculus, Osteoblast, 192 h, 3.0 μM Compound 1, read-out: ALP Activity at Day 8, Percent Activity (%) Compared to BL): 57%
